# Test results reported in patent US20140162980A1, “NOVEL MICROBIOCIDAL DIOXIME ETHER DERIVATIVES” (SYNGENTA CROP PROTECTION LLC, priority 2010, published 2014).
# Tested on: Phytophthora infestans
# Experiment: whole plant or invertebrate
# Type: in vivo
# Conditions: in Solanum lycopersicum, foliar, read-out: control of Phytophthora infestans (percent disease control compared to untreated)
row,SMILES,pest or weed control at 200 ppm
1,CCOc1cc(C)nc2c1CCC/C2=N\OCCCO/N=C1\CCCc2ccc(C)nc21 [P.32],≥ 80%

# Tested on: Plasmopara viticola
# Experiment: whole plant or invertebrate
# Type: in vivo
# Conditions: foliar, read-out: control of Plasmopara viticola (percent disease control compared to untreated)
row,SMILES,pest or weed control at 200 ppm
1,Cc1ccc2c(n1)/C(=N/OCCCO/N=C1\CCCc3c(-c4ccccc4)cc(C)nc31)CCC2 [P.31],≥ 80%
2,CCOc1cc(C)nc2c1CCC/C2=N\OCCCO/N=C1\CCCc2ccc(C)nc21 [P.32],≥ 80%

# Tested on: Blumeria graminis f. sp. tritici (Erysiphe graminis f. sp. tritici)
# Experiment: Blumeria graminis f. sp. tritici / wheat / leaf disc preventative (powdery mildew on wheat)
# Type: in vivo
# Conditions: foliar, wheat leaf segments cv. Kanzler, inoculated 1 day after application, assessed 6-8 days after application, read-out: control of Blumeria graminis (percent disease control compared to untreated)
# Experimental: Blumeria Graminis f. Sp. Tritici (Erysiphe Graminis f. Sp. Tritici)/Wheat/Leaf Disc Preventative (Powdery Mildew on Wheat):
# Wheat leaf segments cv. Kanzler were placed on agar in a 24-well plate and sprayed with the formulated test compound diluted in water at an application rate of 200 ppm. The leaf disks were inoculated by shaking powdery mildew infected plants above the test plates 1 day after application. The inoculated leaf disks were incubated at 20° C. and 60% relative humidity under a light regime of 24 h darkness followed by 12 h/12 h (dark/light) in a climate chamber and the activity of a compound was assessed as percent disease control compared to untreated when an appropriate level of disease damage appears on untreated check leaf segments (6-8 days after application). The following compounds gave at least 80% control of Blumeria graminis: […]
row,SMILES,pest or weed control at 200 ppm
1,COc1ccc2c(n1)/C(=N/OCC1(CO/N=C3\CCCc4ccc(OC)nc43)CC1)CCC2 [P.13],≥ 80%
2,Cc1ccc2c(n1)/C(=N/OC[Si](C)(C)CO/N=C1\CCCc3ccc(C)nc31)CCC2 [P.20],≥ 80%
3,C=C(CO/N=C1\CCCc2ccc(C)nc21)CO/N=C1\CCCc2ccc(C)nc21 [P.07],≥ 80%
4,Cc1ccc2c(n1)/C(=N/OCCCO/N=C1\CCCc3c(-c4ccccc4)cc(C)nc31)CCC2 [P.31],≥ 80%
5,Cc1ccc2c(n1)/C(=N/OCC(C)(C)CO/N=C1\CCCc3c(N4CCCC4)cc(C)nc31)CCC2 [P.41],≥ 80%
6,CCOc1cc(C)nc2c1CCC/C2=N\OCCCO/N=C1\CCCc2ccc(C)nc21 [P.32],≥ 80%

# Tested on: Puccinia recondita f. sp. tritici
# Experiment: Puccinia recondita f. sp. tritici / wheat / leaf disc preventative (brown rust)
# Type: in vivo
# Conditions: foliar, wheat leaf segments cv Kanzler, inoculated 1 day after application, assessed 7-9 days after application, read-out: control of Puccinia recondita f. sp. tritici, preventative (percent disease control compared to untreated)
# Experimental: Puccinia Recondita f. Sp. Tritici/Wheat/Leaf Disc Preventative (Brown Rust): Wheat leaf segments cultivated variety (cv) Kanzler were placed on agar in 24-well plates and sprayed with formulated test compound diluted in water at an application rate of 200 ppm. The leaf disks were inoculated with a spore suspension of the fungus 1 day after application. The inoculated leaf segments were incubated at 19° C. and 75% relative humidity under a light regime of 12/12 h (light/dark) in a climate cabinet and the activity of a compound was assessed as percent disease control compared to untreated when an appropriate level of disease damage appears in untreated check leaf segments (7-9 days after application).
row,SMILES,pest or weed control at 200 ppm
1,COc1ccc2c(n1)/C(=N/OCC1(CO/N=C3\CCCc4ccc(OC)nc43)CC1)CCC2 [P.13],≥ 80%
2,Cc1ccc2c(n1)/C(=N/OC[Si](C)(C)CO/N=C1\CCCc3ccc(C)nc31)CCC2 [P.20],≥ 80%
3,C=C(CO/N=C1\CCCc2ccc(C)nc21)CO/N=C1\CCCc2ccc(C)nc21 [P.07],≥ 80%
4,Cc1ccc2c(n1)/C(=N/OCCCO/N=C1\CCCc3c(-c4ccccc4)cc(C)nc31)CCC2 [P.31],≥ 80%
5,CCOc1cc(C)nc2c1CCC/C2=N\OCCCO/N=C1\CCCc2ccc(C)nc21 [P.32],≥ 80%

# Tested on: Puccinia recondita f. sp. tritici
# Experiment: Puccinia recondita f. sp. tritici / wheat / leaf disc curative (brown rust)
# Type: in vivo
# Conditions: foliar, 200 ppm applied 1 day after inoculation, wheat leaf segments cv Kanzler, assessed 6-8 days after application, read-out: control of Puccinia recondita f. sp. tritici, curative (percent disease control compared to untreated)
# Experimental: Puccinia Recondita f. Sp. Tritici/Wheat/Leaf Disc Curative (Brown Rust): Wheat leaf segments cv Kanzler were placed on agar in 24-well plates. The leaf segments were inoculated with a spore suspension of the fungus. The plates were stored in darkness at 19° C. and 75% relative humidity. The formulated test compound diluted in water was applied at an application rate of 200 ppm 1 day after inoculation.
row,SMILES,pest or weed control at 200 ppm
1,COc1ccc2c(n1)/C(=N/OCC1(CO/N=C3\CCCc4ccc(OC)nc43)CC1)CCC2 [P.13],≥ 80%
2,Cc1ccc2c(n1)/C(=N/OC[Si](C)(C)CO/N=C1\CCCc3ccc(C)nc31)CCC2 [P.20],≥ 80%
3,C=C(CO/N=C1\CCCc2ccc(C)nc21)CO/N=C1\CCCc2ccc(C)nc21 [P.07],≥ 80%
4,Cc1ccc2c(n1)/C(=N/OCCCO/N=C1\CCCc3c(-c4ccccc4)cc(C)nc31)CCC2 [P.31],≥ 80%

# Tested on: Magnaporthe grisea (Pyricularia oryzae)
# Experiment: whole plant or invertebrate
# Type: in vivo
# Conditions: foliar, read-out: control of Magnaporthe grisea (percent disease control compared to untreated)
row,SMILES,pest or weed control at 200 ppm
1,CCOc1cc(C)nc2c1CCC/C2=N\OCCCO/N=C1\CCCc2ccc(C)nc21 [P.32],≥ 80%

# Tested on: Phaeosphaeria nodorum (Septoria nodorum)
# Experiment: Phaeosphaeria nodorum (Septoria nodorum) / wheat / leaf disc preventative (glume blotch)
# Type: in vivo
# Conditions: Parastagonospora nodorum, foliar, wheat leaf segments cv Kanzler, inoculated 2 days after application, assessed 5-7 days after application, read-out: control of Phaeosphaeria nodorum (percent disease control compared to untreated)
# Experimental: Phaeosphaeria Nodorum (Septoria nodorum)/Wheat/Leaf Disc Preventative (Glume Blotch): Wheat leaf segments cv Kanzler were placed on agar in a 24-well plate and sprayed with formulated test compound diluted in water at an application rate of 200 ppm. The leaf disks are inoculated with a spore suspension of the fungus 2 days after application. The inoculated test leaf disks are incubated at 20° C. and 75% relative humidity under a light regime of 12/12 h (light/dark) in a climate cabinet and the activity of a compound is assessed as percent disease control compared to untreated when an appropriate level of disease damage appears in untreated check leaf disks (5-7 days after application).
row,SMILES,pest or weed control at 200 ppm
1,COc1ccc2c(n1)/C(=N/OCC1(CO/N=C3\CCCc4ccc(OC)nc43)CC1)CCC2 [P.13],≥ 80%
2,Cc1ccc2c(n1)/C(=N/OC[Si](C)(C)CO/N=C1\CCCc3ccc(C)nc31)CCC2 [P.20],≥ 80%
3,C=C(CO/N=C1\CCCc2ccc(C)nc21)CO/N=C1\CCCc2ccc(C)nc21 [P.07],≥ 80%
4,Cc1ccc2c(n1)/C(=N/OCCCO/N=C1\CCCc3c(-c4ccccc4)cc(C)nc31)CCC2 [P.31],≥ 80%
5,Cc1ccc2c(n1)/C(=N/OCC(C)(C)CO/N=C1\CCCc3c(N4CCCC4)cc(C)nc31)CCC2 [P.41],≥ 80%
6,CCOc1cc(C)nc2c1CCC/C2=N\OCCCO/N=C1\CCCc2ccc(C)nc21 [P.32],≥ 80%

# Tested on: Pyrenophora teres
# Experiment: Pyrenophora teres / barley / leaf disc preventative (net blotch)
# Type: in vivo
# Conditions: foliar, barley leaf segments cv Hasso, inoculated two days after application, assessed 5-7 days after application, read-out: control of Pyrenophora teres (disease control compared to untreated)
# Experimental: Pyrenophora Teres/Barley/Leaf Disc Preventative (Net Blotch): Barley leaf segments cv Hasso are placed on agar in a 24-well plate and sprayed with formulated test compound diluted in water at an application rate of 200 ppm. The leaf segments are inoculated with a spore suspension of the fungus two days after application of the test solution. The inoculated leaf segments are incubated at 20° C. and 65% relative humidity under a light regime of 12/12 h (light/dark) in a climate cabinet and the activity of a compound is assessed as disease control compared to untreated when an appropriate level of disease damage appears in untreated check leaf segments (5-7 days after application).
row,SMILES,pest or weed control at 200 ppm
1,COc1ccc2c(n1)/C(=N/OCC1(CO/N=C3\CCCc4ccc(OC)nc43)CC1)CCC2 [P.13],≥ 80%
2,Cc1ccc2c(n1)/C(=N/OC[Si](C)(C)CO/N=C1\CCCc3ccc(C)nc31)CCC2 [P.20],≥ 80%
3,C=C(CO/N=C1\CCCc2ccc(C)nc21)CO/N=C1\CCCc2ccc(C)nc21 [P.07],≥ 80%
4,Cc1ccc2c(n1)/C(=N/OCCCO/N=C1\CCCc3c(-c4ccccc4)cc(C)nc31)CCC2 [P.31],≥ 80%
5,Cc1ccc2c(n1)/C(=N/OCC(C)(C)CO/N=C1\CCCc3c(N4CCCC4)cc(C)nc31)CCC2 [P.41],≥ 80%
6,CCOc1cc(C)nc2c1CCC/C2=N\OCCCO/N=C1\CCCc2ccc(C)nc21 [P.32],≥ 80%

# Tested on: Alternaria solani
# Experiment: Alternaria solani / tomato / leaf disc (early blight)
# Type: in vivo
# Conditions: foliar, tomato leaf disks cv. Baby, inoculated 2 days after application, assessed 5-7 days after application, read-out: control of Alternaria solani (percent disease control compared to untreated)
# Experimental: Alternaria Solani/Tomato/Leaf Disc (Early Blight): Tomato leaf disks cv. Baby are placed on agar in multiwell plates (24-well format) and sprayed with the formulated test compound diluted in water at an application rate of 200 ppm. The leaf disks are inoculated with a spore suspension of the fungus 2 days after application. The inoculated leaf disks are incubated at 23° C./21° C.
row,SMILES,pest or weed control at 200 ppm
1,Cc1ccc2c(n1)/C(=N/OC[Si](C)(C)CO/N=C1\CCCc3ccc(C)nc31)CCC2 [P.20],≥ 80%
2,C=C(CO/N=C1\CCCc2ccc(C)nc21)CO/N=C1\CCCc2ccc(C)nc21 [P.07],≥ 80%
3,Cc1ccc2c(n1)/C(=N/OCCCO/N=C1\CCCc3c(-c4ccccc4)cc(C)nc31)CCC2 [P.31],≥ 80%

# Tested on: Pythium ultimum
# Experiment: Pythium ultimum / liquid culture (seedling damping off)
# Type: cell-based
# Conditions: Globisporangium ultimum, PDB potato dextrose broth, 24° C., 2-3 days after application, read-out: control of Pythium ultimum (inhibition of growth, photometrically)
# Experimental: Pythium Ultimum/Liquid Culture (Seedling Damping Off): Mycelia fragments and oospores of a newly grown liquid culture of the fungus were directly mixed into nutrient broth (PDB potato dextrose broth). After placing a DMSO solution of test compound into a 96 well microtiter plate at an application rate 200 ppm, the nutrient broth containing the fungal mycelia/spore mixture was added. The test plates were incubated at 24° C. and the inhibition of growth was determined photometrically 2-3 days after application.
row,SMILES,inhibition at 200 ppm
1,Cc1ccc2c(n1)/C(=N/OC[Si](C)(C)CO/N=C1\CCCc3ccc(C)nc31)CCC2 [P.20],≥ 80%
2,C=C(CO/N=C1\CCCc2ccc(C)nc21)CO/N=C1\CCCc2ccc(C)nc21 [P.07],≥ 80%
3,Cc1ccc2c(n1)/C(=N/OCCCO/N=C1\CCCc3c(-c4ccccc4)cc(C)nc31)CCC2 [P.31],≥ 80%

# Tested on: Botryotinia fuckeliana (Botrytis cinerea)
# Experiment: Botryotinia fuckeliana (Botrytis cinerea) / liquid culture (gray mould)
# Type: cell-based
# Conditions: Vogels broth, 24° C., 3-4 days after application, read-out: control of Botryotinia fuckeliana (inhibition of growth, photometrically)
# Experimental: Botryotinia Fuckeliana (Botrytis cinerea)/Liquid Culture (Gray Mould): Conidia of the fungus from cryogenic storage were directly mixed into nutrient broth (Vogels broth). After placing a DMSO solution of test compound into a 96-well microtiter plate at an application rate 200 ppm, the nutrient broth containing the fungal spores was added. The test plates were incubated at 24° C. and the inhibition of growth was determined photometrically 3-4 days after application.
row,SMILES,inhibition at 200 ppm
1,COc1ccc2c(n1)/C(=N/OCC1(CO/N=C3\CCCc4ccc(OC)nc43)CC1)CCC2 [P.13],≥ 80%
2,Cc1ccc2c(n1)/C(=N/OC[Si](C)(C)CO/N=C1\CCCc3ccc(C)nc31)CCC2 [P.20],≥ 80%
3,C=C(CO/N=C1\CCCc2ccc(C)nc21)CO/N=C1\CCCc2ccc(C)nc21 [P.07],≥ 80%
4,Cc1ccc2c(n1)/C(=N/OCCCO/N=C1\CCCc3c(-c4ccccc4)cc(C)nc31)CCC2 [P.31],≥ 80%
5,Cc1ccc2c(n1)/C(=N/OCC(C)(C)CO/N=C1\CCCc3c(N4CCCC4)cc(C)nc31)CCC2 [P.41],≥ 80%
6,CCOc1cc(C)nc2c1CCC/C2=N\OCCCO/N=C1\CCCc2ccc(C)nc21 [P.32],≥ 80%

# Tested on: Thanatephorus cucumeris (Rhizoctonia solani)
# Experiment: Thanatephorus cucumeris (Rhizoctonia solani) / liquid culture (foot rot, damping-off)
# Type: cell-based
# Conditions: PDB potato dextrose broth, 24° C., 3-4 days after application, read-out: control of Thanatephorus cucumeris (inhibition of growth, photometrically)
# Experimental: Thanatephorus Cucumeris (Rhizoctonia solani)/Liquid Culture (Foot Rot, Damping-Off): Mycelia fragments of a newly grown liquid culture of the fungus are directly mixed into nutrient broth (PDB potato dextrose broth). After placing a DMSO solution of the test compounds into a 96-well microtiter plate at an application rate 200 ppm, the nutrient broth containing the fungal material was added. The test plates were incubated at 24° C. and the inhibition of growth was determined photometrically 3-4 days after application.
row,SMILES,inhibition at 200 ppm
1,COc1ccc2c(n1)/C(=N/OCC1(CO/N=C3\CCCc4ccc(OC)nc43)CC1)CCC2 [P.13],≥ 80%
2,Cc1ccc2c(n1)/C(=N/OC[Si](C)(C)CO/N=C1\CCCc3ccc(C)nc31)CCC2 [P.20],≥ 80%
3,Cc1ccc2c(n1)/C(=N/OCCCO/N=C1\CCCc3c(-c4ccccc4)cc(C)nc31)CCC2 [P.31],≥ 80%
4,Cc1ccc2c(n1)/C(=N/OCC(C)(C)CO/N=C1\CCCc3c(N4CCCC4)cc(C)nc31)CCC2 [P.41],≥ 80%
